Activity calls are given as the source filed them.
Experiments:
Melanocortin receptor 4 = Melanocortin receptor 4 (Homo sapiens, UniProt P32245); assay: inhibitors of MC4R cAMP signaling – cell-based, TR-FRET, biased antagonists, dose response (AID 602298); assay type: functional;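 also: antagonist potency against agonist-stimulated cAMP production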
[1] = cAMP pathway inhibition in counterscreen cell line – TR-FRET cAMP detection, counter-screen for MC4R biased antagonist project, dose response (AID 602305); assay type: functional, cell-based;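 also: U2OS cells stimulated with forskolin near its EC80 as the cAMP inducer; potency is for inhibition of forskolin-stimulated cAMP signaling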
[2] = molecular target: T1, High affinity choline transporter 1 (Homo sapiens, UniProt Q9GZV3); assay: human choline transporter potentiators, potency – cell-based, 10-point CRC, membrane potential dye, dose response (AID 602376); assay type: functional
T1 sequence (Q9GZV3 whole entry): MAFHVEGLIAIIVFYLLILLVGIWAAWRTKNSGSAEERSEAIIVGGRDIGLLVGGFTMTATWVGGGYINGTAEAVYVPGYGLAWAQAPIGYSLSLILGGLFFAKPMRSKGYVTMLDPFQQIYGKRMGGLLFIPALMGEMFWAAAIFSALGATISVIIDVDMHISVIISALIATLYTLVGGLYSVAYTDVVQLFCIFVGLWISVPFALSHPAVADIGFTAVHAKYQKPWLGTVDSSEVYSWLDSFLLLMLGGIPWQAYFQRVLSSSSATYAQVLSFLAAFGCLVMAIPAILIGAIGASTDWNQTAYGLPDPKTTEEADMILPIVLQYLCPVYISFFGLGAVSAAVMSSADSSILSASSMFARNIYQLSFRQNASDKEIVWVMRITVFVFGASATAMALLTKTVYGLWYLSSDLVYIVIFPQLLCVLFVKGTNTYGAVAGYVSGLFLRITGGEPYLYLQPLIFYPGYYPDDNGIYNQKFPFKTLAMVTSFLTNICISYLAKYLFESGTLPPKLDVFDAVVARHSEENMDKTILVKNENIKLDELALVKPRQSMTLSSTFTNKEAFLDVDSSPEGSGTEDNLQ

Erythrocyte = assay: FACS-based assay to assess parasite growth inhibition 96 hr Measured in Cell-Based System Using Flow Cytometry - 2126-05_Inhibitor_Dose_DryPowder_Activity. [Related pubchem assays (depositor defined):AID488774]; assay type: functional; details: Homo sapiens
[3] = FACS-based assay to assess parasite growth inhibition 48 hr Measured in Cell-Based System Using Flow Cytometry - 2126-03_Inhibitor_Dose_DryPowder_Activity. [Related pubchem assays (depositor defined):AID488774]; assay type: functional; details: Homo sapiens
[4] = A cell-based HTS for delayed death inhibitors of the malarial parasite plastid Measured in Microorganism System Using Plate Reader - 2126-02_Inhibitor_Dose_DryPowder_Activity.; assay type: functional, organism-based
[5] = A cell-based HTS for delayed death inhibitors of the malarial parasite plastid Measured in Microorganism System Using Plate Reader - 2126-01_Inhibitor_Dose_DryPowder_Activity.; assay type: functional, organism-based
[6] = molecular target: Hepatocyte growth factor receptor (Homo sapiens, UniProt P08581); assay type: functional;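 also: kinase panel profiling across the kinome, with MET as the panel member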
[7] = molecular target: Serine/threonine-protein kinase Chk1 (Homo sapiens, UniProt O14757); assay type: functional;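 also: measured as one member of a kinome-wide kinase profiling panel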
[8] = molecular target: cAMP-dependent protein kinase catalytic subunit PRKX (Homo sapiens, UniProt P51817); assay type: functional
[9] = molecular target: Leucine-rich repeat serine/threonine-protein kinase 2 (Homo sapiens, UniProt Q5S007); assay type: functional;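 also: value from a broad kinome-wide panel profiling study in which LRRK2 was one of the kinases tested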
[10] = molecular target: Cyclin-dependent kinase 9 (Homo sapiens, UniProt P50750); assay type: functional;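 also: value from the CDK9 entry of a kinome-spanning kinase panel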
[11] = molecular target: Dual specificity protein kinase CLK4 (Homo sapiens, UniProt Q9HAZ1); assay type: functional
[12] = molecular target: Leukocyte tyrosine kinase receptor (Homo sapiens, UniProt P29376); assay: Navigating the Kinome. Panel member name: LTK; assay type: functional
Ion channel NompC = Ion channel NompC (Danio rerio, UniProt Q7T1G6); assay: Dose response cell-based high-throughput screening assay for agonists of the transient receptor potential channel N1 (TRPN1). [Related pubchem assays (depositor defined):AID1424, AID1448]; assay type: functional
Chain of Ion channel NompC (Q7T1G6 whole entry): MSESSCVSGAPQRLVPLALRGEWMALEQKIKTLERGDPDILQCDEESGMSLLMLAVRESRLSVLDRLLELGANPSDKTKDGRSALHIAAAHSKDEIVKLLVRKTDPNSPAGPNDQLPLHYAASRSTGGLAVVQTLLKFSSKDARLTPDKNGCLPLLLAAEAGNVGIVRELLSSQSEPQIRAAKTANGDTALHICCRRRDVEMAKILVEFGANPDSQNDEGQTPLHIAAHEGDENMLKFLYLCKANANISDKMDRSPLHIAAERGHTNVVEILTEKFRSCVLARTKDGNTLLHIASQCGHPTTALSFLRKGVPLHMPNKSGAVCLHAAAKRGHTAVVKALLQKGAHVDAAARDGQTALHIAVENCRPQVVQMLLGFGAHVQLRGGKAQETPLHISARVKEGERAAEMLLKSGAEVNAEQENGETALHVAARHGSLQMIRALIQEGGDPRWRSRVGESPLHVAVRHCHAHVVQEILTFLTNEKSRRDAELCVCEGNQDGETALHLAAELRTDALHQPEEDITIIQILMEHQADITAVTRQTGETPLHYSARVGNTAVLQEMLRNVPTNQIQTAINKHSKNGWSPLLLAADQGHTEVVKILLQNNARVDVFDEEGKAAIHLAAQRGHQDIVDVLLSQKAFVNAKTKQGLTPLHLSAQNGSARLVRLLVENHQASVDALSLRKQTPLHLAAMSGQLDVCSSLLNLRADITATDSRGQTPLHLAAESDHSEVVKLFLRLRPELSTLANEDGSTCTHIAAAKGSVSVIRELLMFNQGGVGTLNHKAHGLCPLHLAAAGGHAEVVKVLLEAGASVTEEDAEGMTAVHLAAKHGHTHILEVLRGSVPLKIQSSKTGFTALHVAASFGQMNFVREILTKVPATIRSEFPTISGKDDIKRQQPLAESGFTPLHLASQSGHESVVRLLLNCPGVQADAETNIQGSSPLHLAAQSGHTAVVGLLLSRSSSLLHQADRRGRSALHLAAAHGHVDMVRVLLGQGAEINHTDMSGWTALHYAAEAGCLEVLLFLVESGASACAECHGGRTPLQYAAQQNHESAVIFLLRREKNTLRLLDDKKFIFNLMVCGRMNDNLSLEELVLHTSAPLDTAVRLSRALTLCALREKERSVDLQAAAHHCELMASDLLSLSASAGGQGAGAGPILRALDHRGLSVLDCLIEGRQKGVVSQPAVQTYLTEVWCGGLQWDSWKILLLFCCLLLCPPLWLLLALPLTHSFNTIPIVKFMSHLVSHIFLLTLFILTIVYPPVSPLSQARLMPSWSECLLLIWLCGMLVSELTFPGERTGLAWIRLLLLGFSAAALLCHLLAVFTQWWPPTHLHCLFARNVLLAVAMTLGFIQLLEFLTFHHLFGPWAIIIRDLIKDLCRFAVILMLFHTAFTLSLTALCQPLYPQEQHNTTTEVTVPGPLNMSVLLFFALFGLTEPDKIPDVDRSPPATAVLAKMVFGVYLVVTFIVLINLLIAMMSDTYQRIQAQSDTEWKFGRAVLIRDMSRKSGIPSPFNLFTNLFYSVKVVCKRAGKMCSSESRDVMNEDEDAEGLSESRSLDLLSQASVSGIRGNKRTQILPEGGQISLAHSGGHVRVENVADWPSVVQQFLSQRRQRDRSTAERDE

Mucolipin-3 = molecular target: T2, Mucolipin-3 (Homo sapiens, UniProt Q8TDD5); assay: Fluorescence counterscreen assay for […] agonists: dose response cell-based high-throughput screening assay to identify agonists of the transient receptor potential channel ML3 (TRPML3). [Related pubchem assays: 1424, 1448 ]; assay type: functional
T2 sequence (Q8TDD5 whole entry): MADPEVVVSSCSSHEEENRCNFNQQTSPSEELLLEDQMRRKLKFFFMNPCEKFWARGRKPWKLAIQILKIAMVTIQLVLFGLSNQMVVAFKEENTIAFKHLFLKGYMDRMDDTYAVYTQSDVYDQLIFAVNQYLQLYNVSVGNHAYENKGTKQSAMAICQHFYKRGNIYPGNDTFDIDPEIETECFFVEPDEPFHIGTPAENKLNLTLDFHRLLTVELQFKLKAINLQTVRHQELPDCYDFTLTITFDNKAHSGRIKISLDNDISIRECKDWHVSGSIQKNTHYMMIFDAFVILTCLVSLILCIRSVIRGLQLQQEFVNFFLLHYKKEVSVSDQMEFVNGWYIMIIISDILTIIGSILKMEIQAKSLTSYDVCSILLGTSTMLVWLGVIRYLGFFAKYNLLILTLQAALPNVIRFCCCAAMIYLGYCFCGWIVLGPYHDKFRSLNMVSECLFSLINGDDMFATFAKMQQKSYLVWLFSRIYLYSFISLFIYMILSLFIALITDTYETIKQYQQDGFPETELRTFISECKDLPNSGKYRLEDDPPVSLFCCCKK

Troponin, cardiac muscle = Troponin, cardiac muscle (Homo sapiens, UniProt P19429+P45379+P63316); assay: Fluorescence-based biochemical high throughput dose response assay for activators of the calcium sensitivity of cardiac Regulated Thin Filaments (RTF). [Related pubchem assays (depositor defined):AID493008, AID493018, AID504382, AID504383]; assay type: protein-complex assay
[13] = molecular target: Multidrug resistance protein CDR2 (Candida albicans (strain SC5314 / ATCC MYA-2876) (Yeast), UniProt P78595); assay: inhibition of Nile Red efflux via Candida CDR2 – S. cerevisiae AD1-8u, singleplex, Cherry Pick1 hits, dose response (AID 588604); assay type: functional
Chain of Multidrug resistance protein CDR2 (P78595 whole entry): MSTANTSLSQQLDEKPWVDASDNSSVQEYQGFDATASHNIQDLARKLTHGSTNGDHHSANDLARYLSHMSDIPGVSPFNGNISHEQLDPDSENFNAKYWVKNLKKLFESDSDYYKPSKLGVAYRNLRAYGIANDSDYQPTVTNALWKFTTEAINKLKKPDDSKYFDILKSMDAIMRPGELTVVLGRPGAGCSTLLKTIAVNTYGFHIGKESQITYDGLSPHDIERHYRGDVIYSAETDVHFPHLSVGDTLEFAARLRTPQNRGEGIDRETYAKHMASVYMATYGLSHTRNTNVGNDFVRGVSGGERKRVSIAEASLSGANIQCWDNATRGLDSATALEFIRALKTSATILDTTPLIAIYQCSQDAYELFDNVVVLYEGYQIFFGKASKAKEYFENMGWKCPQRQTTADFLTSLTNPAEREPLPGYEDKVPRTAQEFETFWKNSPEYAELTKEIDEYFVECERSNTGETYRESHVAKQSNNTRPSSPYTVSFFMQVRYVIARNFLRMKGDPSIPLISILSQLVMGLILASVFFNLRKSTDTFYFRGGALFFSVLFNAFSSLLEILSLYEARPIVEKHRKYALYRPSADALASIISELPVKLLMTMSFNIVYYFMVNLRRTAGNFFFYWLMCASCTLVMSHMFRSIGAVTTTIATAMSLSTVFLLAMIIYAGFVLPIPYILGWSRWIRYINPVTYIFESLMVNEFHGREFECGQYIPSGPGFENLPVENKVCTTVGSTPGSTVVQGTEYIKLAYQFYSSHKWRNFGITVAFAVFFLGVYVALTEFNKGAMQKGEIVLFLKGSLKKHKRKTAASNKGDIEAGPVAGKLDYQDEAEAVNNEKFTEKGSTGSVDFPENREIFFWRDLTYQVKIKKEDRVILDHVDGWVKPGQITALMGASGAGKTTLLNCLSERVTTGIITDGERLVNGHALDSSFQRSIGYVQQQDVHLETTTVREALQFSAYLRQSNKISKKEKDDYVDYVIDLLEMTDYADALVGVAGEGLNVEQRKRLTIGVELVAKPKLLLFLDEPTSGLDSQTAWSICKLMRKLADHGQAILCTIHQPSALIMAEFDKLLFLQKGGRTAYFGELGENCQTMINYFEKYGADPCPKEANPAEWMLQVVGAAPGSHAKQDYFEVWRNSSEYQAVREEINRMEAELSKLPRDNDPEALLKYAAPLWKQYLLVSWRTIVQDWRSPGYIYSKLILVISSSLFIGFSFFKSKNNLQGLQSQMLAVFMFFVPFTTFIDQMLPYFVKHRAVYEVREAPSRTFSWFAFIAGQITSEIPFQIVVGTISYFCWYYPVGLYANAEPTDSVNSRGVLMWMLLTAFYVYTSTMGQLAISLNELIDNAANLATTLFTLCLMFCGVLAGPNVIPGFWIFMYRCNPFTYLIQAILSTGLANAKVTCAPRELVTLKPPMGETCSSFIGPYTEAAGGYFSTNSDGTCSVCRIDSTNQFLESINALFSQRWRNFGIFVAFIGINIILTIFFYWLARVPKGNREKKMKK

Aurora kinase A = Aurora kinase A (Homo sapiens, UniProt O14965); assay type: functional;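 also: value from the Navigating the Kinome kinase panel profiling, panel entry STK6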
Chain of Aurora kinase A (O14965 whole entry): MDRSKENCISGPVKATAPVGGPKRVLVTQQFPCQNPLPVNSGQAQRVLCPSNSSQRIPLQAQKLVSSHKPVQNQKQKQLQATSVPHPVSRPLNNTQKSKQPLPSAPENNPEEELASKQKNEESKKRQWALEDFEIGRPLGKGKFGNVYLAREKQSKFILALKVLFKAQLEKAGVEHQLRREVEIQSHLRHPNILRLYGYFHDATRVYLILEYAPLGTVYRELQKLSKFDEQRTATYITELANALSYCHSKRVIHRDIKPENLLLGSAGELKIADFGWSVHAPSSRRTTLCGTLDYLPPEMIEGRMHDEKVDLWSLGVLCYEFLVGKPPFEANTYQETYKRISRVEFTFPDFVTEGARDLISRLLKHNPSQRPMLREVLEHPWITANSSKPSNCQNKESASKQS

Aurora kinase B = Aurora kinase B (Homo sapiens, UniProt Q96GD4); assay type: functional
Chain of Aurora kinase B (Q96GD4 whole entry): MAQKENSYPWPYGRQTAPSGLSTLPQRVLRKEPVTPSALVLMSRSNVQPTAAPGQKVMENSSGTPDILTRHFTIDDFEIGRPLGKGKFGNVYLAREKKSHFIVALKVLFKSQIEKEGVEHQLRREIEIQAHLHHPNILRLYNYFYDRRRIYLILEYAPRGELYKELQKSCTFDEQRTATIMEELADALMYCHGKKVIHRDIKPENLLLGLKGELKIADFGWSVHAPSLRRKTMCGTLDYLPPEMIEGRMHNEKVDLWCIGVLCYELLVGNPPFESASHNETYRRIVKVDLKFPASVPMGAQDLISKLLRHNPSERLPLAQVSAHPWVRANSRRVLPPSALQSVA

[14] = molecular target: Neuropeptides B/W receptor type 1 (Homo sapiens, UniProt P48145); assay: human NPBW1 receptor blockade, IC50 – cell-based, fluorescence, dose response, set 5, late-stage follow-up (AID 588566); assay type: functional
Chain of Neuropeptides B/W receptor type 1 (P48145 whole entry): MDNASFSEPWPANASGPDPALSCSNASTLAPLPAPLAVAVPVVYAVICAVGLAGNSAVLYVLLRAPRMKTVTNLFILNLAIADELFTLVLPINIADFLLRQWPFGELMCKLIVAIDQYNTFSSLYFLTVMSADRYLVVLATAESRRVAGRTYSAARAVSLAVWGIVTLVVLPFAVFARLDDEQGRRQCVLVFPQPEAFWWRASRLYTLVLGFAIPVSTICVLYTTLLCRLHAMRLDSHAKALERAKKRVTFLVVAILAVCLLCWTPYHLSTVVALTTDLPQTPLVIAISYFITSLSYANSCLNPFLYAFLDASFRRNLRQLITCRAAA

[15] = molecular target: Melanin-concentrating hormone receptor 1 (Homo sapiens, UniProt Q99705); assay: Late-stage fluorescence-based counterscreen for antagonists of the G-protein coupled receptor 7 (GPR7): cell-based dose response assay to identify antagonists of the melanin-concentrating hormone receptor 1 (MCHR1) Set 5.; assay type: functional
Chain of Melanin-concentrating hormone receptor 1 (Q99705 whole entry): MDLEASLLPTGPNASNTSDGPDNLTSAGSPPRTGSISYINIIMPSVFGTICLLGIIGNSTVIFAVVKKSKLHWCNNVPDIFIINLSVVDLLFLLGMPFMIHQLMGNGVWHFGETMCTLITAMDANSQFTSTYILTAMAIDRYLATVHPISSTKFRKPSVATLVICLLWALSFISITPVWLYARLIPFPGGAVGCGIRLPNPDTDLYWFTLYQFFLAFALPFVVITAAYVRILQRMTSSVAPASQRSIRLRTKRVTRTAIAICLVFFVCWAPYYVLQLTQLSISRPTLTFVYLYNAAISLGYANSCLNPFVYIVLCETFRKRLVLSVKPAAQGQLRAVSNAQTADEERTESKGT

[16] = THP-1 cell cytotoxicity, cytotoxicity control, set 4 (AID 504911); assay type: functional; details: Mycobacterium tuberculosis
[17] = THP-1 cell cytotoxicity, dose response, cytotoxicity control, set 3 (AID 504852); assay type: functional; details: Mycobacterium tuberculosis
[18] = Vero cell cytotoxicity, dose response, cytotoxicity control for M. tuberculosis growth inhibitor project, Vero cells, purified and synthesized compounds, set 4 (AID 504854); assay type: functional; details: Mycobacterium tuberculosis
[19] = molecular target: Tyrosine-protein kinase Lck (Homo sapiens, UniProt P06239); assay type: functional;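 also: lck was assayed as one member of a kinase panel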
[20] = molecular target: Vascular endothelial growth factor receptor 2 (Homo sapiens, UniProt P35968); assay type: functional
[21] = molecular target: Glycogen synthase kinase-3 beta (Homo sapiens, UniProt P49841); assay: inhibition of human GSK3B activity – biochemical, microfluidics, dry powder samples, set 2, dose response (AID 623989); assay type: functional
Chain of Glycogen synthase kinase-3 beta (P49841 whole entry): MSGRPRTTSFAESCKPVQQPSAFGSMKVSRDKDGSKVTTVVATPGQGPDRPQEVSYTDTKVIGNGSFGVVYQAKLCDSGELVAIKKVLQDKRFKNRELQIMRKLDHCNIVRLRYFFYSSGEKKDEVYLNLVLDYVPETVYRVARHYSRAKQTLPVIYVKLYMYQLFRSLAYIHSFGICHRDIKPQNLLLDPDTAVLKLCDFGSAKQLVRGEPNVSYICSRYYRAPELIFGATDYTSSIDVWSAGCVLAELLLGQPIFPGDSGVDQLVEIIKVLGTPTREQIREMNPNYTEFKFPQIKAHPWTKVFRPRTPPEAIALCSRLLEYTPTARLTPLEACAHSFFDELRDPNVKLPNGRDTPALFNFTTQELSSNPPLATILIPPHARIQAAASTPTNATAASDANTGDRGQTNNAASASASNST

[22] = molecular target: Cell division cycle 7-related protein kinase (Homo sapiens, UniProt O00311); assay type: functional;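 also: value obtained from a kinome-wide kinase panel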
[23] = molecular target: G protein-coupled receptor kinase 5 (Homo sapiens, UniProt P34947); assay: Navigating the Kinome. Panel member name: GPRK5; assay type: functional

Structure (SMILES): CN(C(=O)COC(=O)CNC(=O)c1ccc(Cl)cc1Cl)c1ccccc1
- IC50 (Melanocortin receptor 4): > 64.6 µM (inactive)
- IC50 [1]: > 64.6 µM (inactive)

Structure (SMILES): CC(C)COP(=O)(OCC(C)C)C(Nc1ccccc1)c1ccc(F)cc1 (stereo not given)
- EC50 [2]: 12.2 µM (active)

Structure (SMILES): Cc1noc(C)c1NC(=O)Nc1ccc2c(c1)C(=O)N([C@@H](C)CO)C[C@@H](C)[C@H](CN(C)S(=O)(=O)c1ccc(F)cc1)OCCCC[C@H](C)O2
- AC50 (Erythrocyte): 0.697 µM (active)
- AC50 [3]: 0.609 µM (active)
- AC50 [4]: 0.57 µM (active)
- AC50 [5]: 0.697 µM (active)

Structure (SMILES): Cc1csc2nc(N)nn12
- Ki [6]: 79.4 µM (active)
- Ki [7]: 31.6 µM (active)
- Ki [8]: 79.4 µM (active)
- Ki [9]: 39.8 µM (active)
- Ki [10]: 50.1 µM (active)
- Ki [11]: 31.6 µM (active)
- Ki [12]: 79.4 µM (active)

Structure (SMILES): C=CCn1c(=O)[nH]c2nc3cc(/N=C/N(C)C)c(C)cc3nc2c1=O
- EC50 (Ion channel NompC): 3.27 µM (active)
- EC50 (Mucolipin-3): 5.89 µM (active)
- EC50 (Troponin, cardiac muscle): 1.86 µM (active)
- EC50 [13]: 1.62 µM (active)

Structure (SMILES): Cc1ccc(-c2nc3ccc(Br)cc3c(C(=O)O)c2CC(=O)O)cc1C
- Ki (Aurora kinase A): 0.0631 µM (active)
- Ki (Aurora kinase B): 0.126 µM (active)

Structure (SMILES): CCOc1ccc(Oc2c(Cl)c(N3CCCCC3)nn(Cc3cccc4ccccc34)c2=O)cc1
- IC50 [14]: > 20 µM (inactive)
- IC50 [15]: > 20 µM (inactive)

Structure (SMILES): CNC(=O)CSc1nc2ccccc2c(=O)[nH]1
- CC50 [16]: > 100 µM (active)
- CC50 [17]: > 100 µM (active)
- CC50 [18]: > 100 µM (active)

Structure (SMILES): O=C(Nc1cccc(-c2nc3sccn3c2-c2ccnc(Nc3ccccc3Cl)n2)c1)c1ccccc1
- Ki [19]: 3.98 µM (active)
- Ki [20]: 0.794 µM (active)

Structure (SMILES): Cc1ccc(S(=O)(=O)N2CCN(CC(=O)N/N=C/c3ccccn3)CC2)cc1
- AC50 [21]: 13.7 µM (active)

Structure (SMILES): CC(C)(C)c1cnc(CSc2cnc(NC(=O)C3CCNCC3)s2)o1 [BMS-387032]
- Ki [22]: > 3.98 µM (inactive)
- Ki [23]: > 3.98 µM (inactive)

Source: ChEMBL document CHEMBL1201862, “PubChem BioAssay data set” (2004)
